Results on two compounds are retold here after US8198322B2, “Apoptotic and anti-tumor activities of metallo-salens” (Board of Regents, The University of Texas System, priority 2008, dated 2012).

What is called IC50 is the point on the concentration scale where inhibition reaches its midpoint.

Data set [1] is described as follows: Animal toxicity. The format is in vivo. Conditions: C57B mice, intraperitoneal, 5, 10 and 20 mg/kg, twice a week for 4 weeks. As for the experimental part: The inventors intraperitoneally administered the Mn(III)-salen complexes (in PBS) at three different dozes (5, 10 and 20 mg/kg of mice, 6 weeks old normal C57B mice). The mice were treated twice a week for 4 weeks. After treatment, sign of toxicity were monitored (such as weight loss, mobility), animal behavior and health on a daily basis.

The subject of data set [2] is MCF-7 cells. Put plainly: Cell viability assay (MTT, DIC microscopy) at 20 μM. Type of data set: cell-based, human. Further details: key to Summary of cell viability activities (active/inactive): Y and N indicates active and inactive compounds respectively; Y and N indicates active and inactive compounds respectively. The settings on record: for Summary of cell viability activities (active/inactive): MCF-7 cells, 20 μM, 24-96 hrs, MTT. As to the method: (A-F): MCF-7 cells were treated with 20 μM metallo-salens and incubated for varying time periods (24-96 hrs). Viable cells were quantified using MTT assay. The percent viable cells (relative to control, treated with equivalent amount of DMSO) were plotted as a function of time for each compound. This experiment was repeated twice with 8 replicate treatments each time. Bars indicates standard errors of mean (SEM). Curves 1-42 in FIGS. 2A-2F, represent the viability curves for compounds 1-42 respectively. (A′-F′) DIC images of the corresponding MCF-7 cells that were treated with DMSO (control panel), or with 20 μM Mn(III)- and Fe(III)-salen complexes for 72 hrs showing the visual effects on cellular morphology and growth/death.
Cell viability assay: Approximately 10,000 MCF-7 cells were seeded into each well of a 96 well micro titer plate and incubated 24 hrs in presence of 150 μL DMEM. An additional 50 μL DMEM containing required amount of each metallo-salen to obtain 20 μM final concentrations (in 200 μL final volume) in 8 replicate wells were added. Control wells were treated with equivalent amount of dimethylsulfoxide (DMSO). The viability of the cells was assayed at 24, 48, 72 and 96 hrs post treatment by using both microscopic observation and MTT assay. For microscopic observation cells were stained with trypan blue for at least 10 minute and observed under Differential Interference Contrast (DIC) setting of a fluorescence microscope (Nikon Eclipse TE2000-U, Japan). The MTT assay was performed as described previously^42. In brief, 20 μL MTT (5 mg/ml in PBS) was added into each wells and incubated for 2 hrs under normal growth condition to allow the viable cell to convert MTT to formazan. Then the media was discarded and formazan crystals were dissolved by adding 100 μL of DMSO and incubating 2 hrs with continuous shaking. The absorbance of the lysates were directly measured at 560 nm using a micro plate reader (Fluostar-omega, BMG Labtech). The absorbance values (which are proportional to the viable cell) are plotted as a function of time. The studies were repeated twice with 8 replicates each time.
The inventors studied the effect of Mn(III)-salen and Fe(III)-salen derivatives on the cell viability of cultured breast cancer cells MCF-7 in order to investigate the biochemical effects of the derivatives. The cells were incubated alone or with 20 μM of each of the metallo-salen derivatives separately (compounds 1-45) for varying time periods (0-96 hrs). The viable cells were quantified using MTT assay and the percent of cell survived (relative to the control untreated cells) were plotted against time (FIGS. 2A-2F).

Data set [3] has as its system MCF-7 cells. Put plainly: Cytotoxicity assay (IC50 measurement, MTT). Conditions: MCF-7, 96 hrs, read-out: IC50 values for different complexes in MCF-7 cells. The format is cell-based, human. As for the experimental part: Cytotoxicity assay (IC50 measurement): The cytotoxicity of Fe(III)-salen and its derivatives was determined by using MTT assay as described previously^42. In brief, approximately 10,000 MCF-7 cells were seeded into each well of a 96 well micro titer plate and incubated 24 hrs in presence of 150 μL DMEM. An additional 50 μL DMEM containing required amount of each metallo-salen to obtain 0.05 to 60 μM final concentration (in 200 μL final volume) in 8 replicate wells were added. Control wells were treated with equivalent amount of DMSO. After 96 hrs of incubation, 20 μL of MTT (5 mg/mL) was added into each well and cell viability was assayed by measuring the formazan absorption at 560 nm as described above. The absorbance (at 560 nm) values were plotted against concentration of metallo-salens to determine the IC50. The studies were repeated twice with 8 replicates each time.
The concentration of the metal-complexes at which the conversion of MTT to formazan by viable cells is reduced by 50% compared to control cells is defined as the IC50. The percent of cell survival relative to the control cells were plotted as a function of concentration of the metallo-salen derivatives.

Data set [4] has as its system colon cancer xenograft (CCL228 cells). Put plainly: Colon cancer xenograft experiment. The settings on record: Athymic nude nu/nu mice, intraperitoneal, 10 mg/kg, twice a week. Type of data set: in vivo. As to the method:
Athymic nude nu/nu mice carrying the colon cancer xenograft were administered with 10 mg/kg of 3,3′-dimethoxy Mn(III)-salen (compound 6), 3,3′-dihydroxy Mn(III)-salphen (compound 9) and 3,3′-dihydroxy Mn(III)-salnaphen (compound 16) at 4 days interval, for over a period of 21 days. Tumor diameters were measured using a slide caliper prior to each administration and plotted (left panel). Bar indicated standard deviation (3 replicate experiments).
All the animal experiments were carried out using the IACUC approved protocol. For examining the efficacies of metallo-salen complexes, the inventors administered selected metallo-salen complexes in PBS intraperitoneally on Athymic nude nu/nu mice (Harlan) carrying the colon cancer xenografts. In brief, 2×10^6 human colon cancer cells (CCL228 cell in 100 μl of PBS) were injected subcutaneously (near the right back limb). Animals were examined daily for signs of tumor growth and behavior. Once the tumor size reached ˜25 mm^2 (2 to 3 weeks after injection of cells) the inventors administered the metallo-salen complexes intraperitoneally (in PBS solution, twice in a week, in three parallel replicates). Control mice were injected with equal volume of the diluents (PBS) alone. Prior to every new treatment with metallo-salen complexes, bi-dimensional measurements were carried out using calipers and cross-sectional area (tumor size) and data were plotted (FIG. 8A).
Xenograft experiment: To test the efficacy in controlling the tumor growth, the inventors administered compound compounds, 6, 9 and 16, intraperitoneally to six week old Athymic nude nu/nu mice carrying the colon cancer xenograft. In brief, 2×10^6 human colon cancer cells (CCL228 cell in 100 μl of PBS) were injected subcutaneously (near the right back limb). Animals were examined daily for signs of tumor growth and behavior. Once the tumor size reached ˜25 mm^2 (2 to 3 weeks after injection of cells) the inventors administered compounds 6, 9, and 16 intraperitoneally (separately in PBS solution, twice a week, 10 mg/kg dose). Every study was performed in three parallel replicates. […]

The test system of data set [5] is MCF-7 and CCL228 cancer cells over MCF-10 normal breast epithelial cells. Put plainly: IC50 comparison of cancer versus normal cell lines (MTT, FIG. 4). The format is cell-based, human. Conditions: ratio of IC50 values. As for the experimental part: IC50 values for each biochemically compounds were determined using MTT assay in three different cell lines that include MCF-7 (breast cancer), CCL228 (colon cancer) and MCF-10 (normal breast epithelial cells). IC50 values were for comparison for each compound (compounds 1-45) as marked.
To study the anti-tumor drug potential of Mn(III)- and Fe(III)-metallo salen derivatives, the inventors analyzed IC50 values for the each of the active compounds towards different cancer as well as normal cells. The IC50 values for different active compounds (compounds 1-42) for three different cell lines, MCF-7 (breast cancer), CCL228 (colon cancer) and MCF-10 (non malignant breast cells), are plotted in the bar graph in FIG. 4.

For `CC(=O)[O-].[Mn+3].[O-]c1c(O)cccc1C=Nc1cc2ccccc2cc1N=Cc1cccc(O)c1[O-]` [compound 16, 3,3′-Dihydroxysalnaphen Mn(III) acetate], in data set [1], the animal toxicity entry is recorded as “did not have any significant animal toxicity”; the “survival and body weight” value is listed as “survived without significant loss of body weight”. In data set [2], the “Summary of cell viability activities (active/inactive)” value is given as “Y (16)”. In addition, the IC50 in data set [3] is 40.3 µM. For the same compound, the “tumor growth in colon cancer xenograft” value in data set [4] is given as “tumor size were grown exponentially”.

With `COc1ccc(C=NCCN=Cc2ccc(OC)cc2[O-])c([O-])c1.[Cl-].[Fe+3]` [compound 27, 4,4′-Dimethoxysalen Fe(III) chloride], the “time to induce similar extent (more than 80%) of cell death” value in data set [2] (MCF-7, 20 μM) is “about 72 hrs”. The “effect on cell viability (in words)” value in data set [2] (MCF-7, 20 μM, up to 96 hrs) is reported as “highly effective in killing MCF-7 cells”. Moreover, the “Summary of cell viability activities (active/inactive)” value in data set [2] is “Y (27)”. In data set [3], the half-maximal inhibitory concentration (IC50) was found to be 12.4 µM. The “selectivity in killing cancer cells (MCF-7 and CCL228) over normal cells (MCF-10)” value in data set [5] is recorded as “about 4 fold”.
